# Measured values: ChEMBL document CHEMBL2390939, “Synthesis and in vitro cytotoxicity of andrographolide-19-oic acid analogues as anti-cancer agents” (Bioorg Med Chem Lett, 2013)
# What was measured:
# [1] = system: MCF7; assay: Cytotoxicity against human MCF7 cells assessed as growth inhibition after 72 hrs by MTS assay; assay type: functional, cell-based; conditions: MCF7, 72 h
# [2] = system: HCT-116; assay: Cytotoxicity against human HCT116 cells assessed as growth inhibition after 72 hrs by MTS assay; assay type: functional, cell-based; conditions: HCT-116, 72 h
# [3] = system: HCT-116; assay: Ratio of cis-platin IC50 to compound IC50 for growth inhibition of human HCT116 cells; assay type: functional
Compound,IC50 [1],IC50 [2],Ratio IC50 [3]
C=C1CC[C@H]2[C@@](C)(CC[C@@H](OC(C)=O)[C@@]2(C)C(=O)O)[C@@H]1C/C=C1/C(=O)OC[C@H]1OC(C)=O,> 4.1 µM,2.19 µM,
C=C1CC[C@H]2[C@@](C)(CC[C@@H](O)[C@@]2(C)C(=O)O)[C@@H]1C/C=C1/C(=O)OC[C@H]1OC(=O)/C=C/c1ccc(OC)cc1,8.86 µM,1.92 µM,
C=C1CC[C@H]2[C@@](C)(CC[C@@H](OC(C)=O)[C@@]2(C)C(=O)OCc2ccccc2)[C@@H]1C/C=C1/C(=O)OC[C@H]1OC(=O)c1ccccc1,8.37 µM,1.18 µM,11
C=C1CC[C@@H]2[C@](C)(CO)[C@H](O)CC[C@@]2(C)[C@@H]1C/C=C1/C(=O)OC[C@H]1O [ANDROGRAPHOLIDE],> 66 µM,23.9 µM,
C=C1CC[C@H]2[C@@](C)(CC[C@@H](O)[C@@]2(C)C(=O)O)[C@@H]1C/C=C1/C(=O)OC[C@H]1OC(C)=O,33.3 µM,25.2 µM,
C=C1CC[C@H]2[C@@](C)(CC[C@@H](OC(C)=O)[C@@]2(C)C(=O)OCc2ccccc2)[C@@H]1C/C=C1/C(=O)OC[C@H]1OC(C)=O,6.28 µM,1.07 µM,
C=C1CC[C@H]2[C@@](C)(CC[C@@H](OC(C)=O)[C@@]2(C)C(=O)O)[C@@H]1C/C=C1/C(=O)OC[C@H]1OC(=O)c1ccccc1,38.2 µM,17.8 µM,
C=C1CC[C@H]2[C@@](C)(CC[C@@H](OC(C)=O)[C@@]2(C)C(=O)OC)[C@@H]1C/C=C1/C(=O)OC[C@H]1OC(=O)/C=C/c1ccc(OC)cc1,14.5 µM,2.78 µM,
C=C1CC[C@H]2[C@@](C)(CC[C@@H](OC(C)=O)[C@@]2(C)C(=O)OC)[C@@H]1C/C=C1/C(=O)OC[C@H]1OC(=O)c1ccccc1,10.6 µM,3.01 µM,
C=C1CC[C@H]2[C@@](C)(CC[C@@H](O)[C@@]2(C)C(=O)O)[C@@H]1C/C=C1/C(=O)OC[C@H]1OC(=O)c1ccccc1,> 40.2 µM,13.8 µM,
C=C1CC[C@H]2[C@@](C)(CC[C@@H](OC(C)=O)[C@@]2(C)C(=O)OCc2ccccc2)[C@@H]1C/C=C1/C(=O)OC[C@H]1OC(=O)/C=C/c1ccc(OC)cc1,6.13 µM,2.83 µM,
C=C1CC[C@H]2[C@@](C)(CC[C@@H](OC(C)=O)[C@@]2(C)C(=O)O)[C@@H]1C/C=C1/C(=O)OC[C@H]1OC(=O)/C=C/c1ccc(OC)cc1,33.9 µM,9.73 µM,
C=C1CC[C@H]2[C@@](C)(CC[C@@H](OC(C)=O)[C@@]2(C)C(=O)OC)[C@@H]1C/C=C1/C(=O)OC[C@H]1OC(C)=O,6.4 µM,2.02 µM,
